Article PMC6943742, “Peptide/Peptoid Hybrid Oligomers: The Influence of Hydrophobicity and Relative Side-Chain Length on Antibacterial Activity and Cell Selectivity” (Molecules, 2019)
Converted amounts (≈) assume the structure as drawn. Non-standard residues stand in square brackets, D forms with d. Residues, ends and D or L forms follow the SMILES beside them. N(5-aminopentyl)Gly = NCCCCCNCC(=O)O; Gly(NCH2CH2Ph) = O=C(O)CNCCc1ccccc1; hPhe = N[C@@H](CCc1ccccc1)C(=O)O; Gly(N(CH2)3NH2) = NCCCNCC(=O)O; hLys = NCCCCC[C@H](N)C(=O)O; Nphe = O=C(O)CNCc1ccccc1; Orn = NCCC[C@H](N)C(=O)O; Nlys = NCCCCNCC(=O)O

Key:
[1] = Relative hydrophobicity by RP-HPLC (% MeCN at peak elution); assay type: physicochemical; conditions: RP-HPLC gradient 0 → 60% B during 10 min; % MeCN at peak elution calculated from retention time
Method: The relative hydrophobicity of each peptidomimetic was measured by reverse-phase high-performance liquid chromatography (RP-HPLC). Typically, the RP-HPLC retention time (or percentage acetonitrile at peak elution) constitutes the preferred measure that allows for comparison of relative hydrophobicity, while log P values of polycationic peptides or peptidomimetics normally are considered unsuitable due to the extreme hydrophilic nature of such compounds [11, 45, 57, 58, 59, 60]. […] For both subgroups III (with cationic amino acid residues and the peptoid analogue of Phe, NPhe, i.e., 9–12) and IV (with cationic amino acid residues and the peptoid analogue of hPhe, NhPhe, i.e., 13–16) only minor differences in hydrophobicity were seen. These observations infer that, when the cationic residues are of a peptoid nature, the side-chain length of these has a […] influence on the hydrophobicity. […] Thus, introduction of additional six methylene groups results, as expected, in increased hydrophobicity.
Starting materials and solvents were purchased from commercial suppliers (Iris Biotech, Markredwitz, Germany; Fluorochem, Hadfield, United Kingdom; and Merck, Darmstadt, Germany) and used without further purification. Water used for analytical and preparative high-performance liquid chromatography (HPLC) was filtered through a 0.22-μm Millipore membrane filter. Purity and retention time of each peptidomimetic were determined by analytical UHPLC by using a Phenomenex Luna C18(2) HST column (100 mm × 3 mm; particle size: 2.5 μm; pore size: 100 Å) on a Shimadzu Prominence and Shimadzu Nexera system using an aqueous acetonitrile (MeCN) gradient with 0.1% trifluoroacetic acid (TFA) added (eluent A: 5:95 MeCN–H2O + 0.1% TFA, eluent B: 95:5 MeCN–H2O + 0.1% TFA); a flow rate of 0.5 mL/min was used. For elution of peptidomimetics, a linear gradient of 0% to 60% B during 10 min was used with UV detection at λ = 220 nm. […] For each peptidomimetic, the percentage of MeCN at peak elution was calculated from the retention time by using the following formula:(1) %MeCN = 0.95 (0.6Rt/10 min.) + 0.05 (1−0.6Rt/10 min.).

P. aeruginosa PAO1 = assay type: cell-based; conditions: PAO1, 20 h
Method: (§1) MIC values were evaluated by using the modified Hancock lab protocol in non-binding polystyrene microtitre plates, with bacterial suspensions of ∼2 × 10^5 CFU/mL in Mueller-Hinton broth (Difco, Sparks MD, USA), with Mg^2+ and Ca^2+ concentrations of 4 mg/L each. The compounds were dissolved in H2O and diluted in 0.01% acetic acid, 0.2% BSA (final concentration). Aliquots of 11 µL of 10 × test compounds were then transferred to the appropriate wells with bacterial suspensions. For preparation and transfer of the solutions of the compounds, low-binding sterile tubes and tips (Axygen, Union City CA, USA) were used. After 20 h incubation of covered plates at 35 °C (±2 °C) with circular shaking at 220 rpm, the MICs were read. The antibacterial activity of peptidomimetics was tested against E. coli ATCC 25922, K. pneumoniae ATCC 13883, P. aeruginosa ATCC 27853, P. aeruginosa PAO1, A. baumannii ATCC 19606, S. aureus ATCC 29213, and E. faecalis ATCC 29212.

E. faecalis ATCC 29212 = assay type: cell-based; conditions: ATCC 29212, 20 h
Method: as §1

P. aeruginosa ATCC 27853 = assay type: cell-based; conditions: ATCC 27853, 20 h
Method: as §1

A. baumannii ATCC 19606 = assay type: cell-based; conditions: ATCC 19606, 20 h
Method: as §1

S. aureus ATCC 29213 = assay type: cell-based; conditions: for MIC: ATCC 29213, 20 h
Method: as §1

K. pneumoniae ATCC 13883 = assay type: cell-based; conditions: ATCC 13883, 20 h
Method: as §1

E. coli ATCC 25922 = assay type: cell-based; conditions: ATCC 25922, 20 h
Method: as §1

in vitro [2] = assay type: cell-based; conditions: human, Hemolytic Activity (percentage hemolysis)
Method: The lysis of human red blood cells was measured as previously described, with modifications. In brief, freshly drawn human red blood cells (hRBCs) were washed three times with PBS buffer and centrifuged two times for 5 min at 2500 rpm. A two-fold serial dilution of peptidomimetics in PBS buffer was added to each well in a sterile polypropylene V-bottom 96-well plate to the total volume of 75 μL. A 0.5% v/v hRBC suspension (75 μL in PBS buffer) was added to each well to reach a final volume of 150 μL in each well. The plate was incubated (37 °C) for 60 min, and then the cells were subsequently pelleted by centrifugation at 1000 rpm for 5 min. The supernatants (50 μL) were transferred to clear, flat-bottomed plastic 96-well plates. The concentration of hemoglobin was detected by measuring the OD at 405 nm. The OD of cells incubated with 0.1% SDS defined 100% hemolysis, while the OD of cells incubated with PBS buffer defined 0% hemolysis. The concentrations tested were 200, 400, and 800 μg/mL (only average values for the highest concentration are stated in Table 2).

[3] = system: HepG2 cell line ATCC HB-8065; experiment: in vitro; assay type: cell-based; conditions: 48 h
Method: (§2) Side effects affecting cell viability were estimated on the HepG2 cell line ATCC HB-8065. In brief, HepG2 cells were seeded in flat-bottomed 96-well plates at a concentration of 5000 cells per well. At 80−90% confluency, the cells were incubated for 24 h in a humidified incubator (5% CO2, 37 °C). The medium was removed, and the cells were incubated for 48 h in a humidified incubator (5% CO2, 37 °C) with compounds in two-fold serial dilutions. An MTT assay was then performed as previously described. In brief, after incubation with the test compounds, the culture medium was removed and fresh medium with 0.2 mg/mL MTT was added in each well of the plate. After incubation (3 h, 37 °C, 5% CO2), the medium with MTT was removed, and 200 μL dimethyl sulfoxide were added at once to each sample. Absorbance of MTT was measured using spectrophotometer TECAN Infinite M1000 at 540 nm. The relative viability was calculated by using the formula: ODtreated cells × 100/ODcontrol cells. The IC50 values are calculated by using the program Graph Pad Prism® 5.0. For all compounds, the test range was 10–1280 μg/mL.

in vitro [4] = assay type: cell-based; conditions: human
Method: as §2

Row | Hydrophobicity (% MeCN at elution) [1] [%] | MIC (P. aeruginosa PAO1) [µg/mL] | MIC (E. faecalis ATCC 29212) [µg/mL] | MIC (P. aeruginosa ATCC 27853) [µg/mL] | MIC (A. baumannii ATCC 19606) [µg/mL] | MIC (S. aureus ATCC 29213) [µg/mL] | MIC (K. pneumoniae ATCC 13883) [µg/mL] | MIC (E. coli ATCC 25922) [µg/mL] | IC50 for inhibiting growth of HepG2 cells [3] [µg/mL] | Structure (SMILES) | hemolysis at 60 min, 800 µg/mL (in vitro [2]) [%] | viability at 48 h, 1280 µg/mL (in vitro [4]) [%] | Activity against S. aureus (in words) (S. aureus ATCC 29213; S. aureus)
1 | 40.6 | 32 to 64 | >64 | 32 (≈ 18.3 µM) | >64 | >64 | >64 | 2 to 4 | 720 | NCCCCNCC(=O)N[C@@H](CCc1ccccc1)C(=O)N(CCCCN)CC(=O)N[C@@H](CCc1ccccc1)C(=O)N(CCCCN)CC(=O)N[C@@H](CCc1ccccc1)C(=O)N(CCCCN)CC(=O)N[C@@H](CCc1ccccc1)C(=O)N(CCCCN)CC(=O)N[C@@H](CCc1ccccc1)C(=O)N(CCCCN)CC(=O)N[C@@H](CCc1ccccc1)C(N)=O [Peptidomimetic 7] (H-[Nlys][hPhe][Nlys][hPhe][Nlys][hPhe][Nlys][hPhe][Nlys][hPhe][Nlys][hPhe]-NH2) | 6 |  | 
2 | 36.6 | >64 | >64 | >64 | 64 (≈ 36.5 µM) | >64 | 64 (≈ 36.5 µM) | 4 to 8 | 1280 | NCCCCCNCC(=O)N[C@@H](Cc1ccccc1)C(=O)N(CCCCCN)CC(=O)N[C@@H](Cc1ccccc1)C(=O)N(CCCCCN)CC(=O)N[C@@H](Cc1ccccc1)C(=O)N(CCCCCN)CC(=O)N[C@@H](Cc1ccccc1)C(=O)N(CCCCCN)CC(=O)N[C@@H](Cc1ccccc1)C(=O)N(CCCCCN)CC(=O)N[C@@H](Cc1ccccc1)C(N)=O [Peptidomimetic 4] (H-[N(5-aminopentyl)Gly]F[N(5-aminopentyl)Gly]F[N(5-aminopentyl)Gly]F[N(5-aminopentyl)Gly]F[N(5-aminopentyl)Gly]F[N(5-aminopentyl)Gly]F-NH2) | 9 | 49 | 
3 | 40.5 | 8 to 16 | >64 | 8 (≈ 4.79 µM) | >64 | >64 | 32 (≈ 19.2 µM) | 4 to 8 | 684 | NCCC[C@H](NC(=O)CN(CCc1ccccc1)C(=O)[C@H](CCCN)NC(=O)CN(CCc1ccccc1)C(=O)[C@H](CCCN)NC(=O)CN(CCc1ccccc1)C(=O)[C@H](CCCN)NC(=O)CN(CCc1ccccc1)C(=O)[C@H](CCCN)NC(=O)CN(CCc1ccccc1)C(=O)[C@@H](N)CCCN)C(=O)N(CCc1ccccc1)CC(N)=O [Peptidomimetic 14] (H-[Orn][Gly(NCH2CH2Ph)][Orn][Gly(NCH2CH2Ph)][Orn][Gly(NCH2CH2Ph)][Orn][Gly(NCH2CH2Ph)][Orn][Gly(NCH2CH2Ph)][Orn][Gly(NCH2CH2Ph)]-NH2) | 11 |  | 
4 | 38.0 | 64 (≈ 36.5 µM) | >64 | 64 (≈ 36.5 µM) |  | >64 | >64 | 2 (≈ 1.14 µM) | 1280 | NCCCCC[C@H](NC(=O)CN(Cc1ccccc1)C(=O)[C@H](CCCCCN)NC(=O)CN(Cc1ccccc1)C(=O)[C@H](CCCCCN)NC(=O)CN(Cc1ccccc1)C(=O)[C@H](CCCCCN)NC(=O)CN(Cc1ccccc1)C(=O)[C@H](CCCCCN)NC(=O)CN(Cc1ccccc1)C(=O)[C@@H](N)CCCCCN)C(=O)N(CC(N)=O)Cc1ccccc1 [Peptidomimetic 12] (H-[hLys][Nphe][hLys][Nphe][hLys][Nphe][hLys][Nphe][hLys][Nphe][hLys][Nphe]-NH2) | 9 | 47 | 
5 | 40.5 | 8 to 16 | >64 | 16 (≈ 9.13 µM) | 64 (≈ 36.5 µM) | >64 | >64 | 4 (≈ 2.28 µM) | 595 | NCCCC[C@H](NC(=O)CN(CCc1ccccc1)C(=O)[C@H](CCCCN)NC(=O)CN(CCc1ccccc1)C(=O)[C@H](CCCCN)NC(=O)CN(CCc1ccccc1)C(=O)[C@H](CCCCN)NC(=O)CN(CCc1ccccc1)C(=O)[C@H](CCCCN)NC(=O)CN(CCc1ccccc1)C(=O)[C@@H](N)CCCCN)C(=O)N(CCc1ccccc1)CC(N)=O [Peptidomimetic 15] (H-K[Gly(NCH2CH2Ph)]K[Gly(NCH2CH2Ph)]K[Gly(NCH2CH2Ph)]K[Gly(NCH2CH2Ph)]K[Gly(NCH2CH2Ph)]K[Gly(NCH2CH2Ph)]-NH2) | 8 |  | 
6 | 41.2 | 16 to 32 | >64 | 8 (≈ 4.79 µM) | >64 | 16 (≈ 9.59 µM) | >64 | 4 (≈ 2.4 µM) | 456 | NCCCNCC(=O)N[C@@H](CCc1ccccc1)C(=O)N(CCCN)CC(=O)N[C@@H](CCc1ccccc1)C(=O)N(CCCN)CC(=O)N[C@@H](CCc1ccccc1)C(=O)N(CCCN)CC(=O)N[C@@H](CCc1ccccc1)C(=O)N(CCCN)CC(=O)N[C@@H](CCc1ccccc1)C(=O)N(CCCN)CC(=O)N[C@@H](CCc1ccccc1)C(N)=O [Peptidomimetic 6] (H-[Gly(N(CH2)3NH2)][hPhe][Gly(N(CH2)3NH2)][hPhe][Gly(N(CH2)3NH2)][hPhe][Gly(N(CH2)3NH2)][hPhe][Gly(N(CH2)3NH2)][hPhe][Gly(N(CH2)3NH2)][hPhe]-NH2) | 8 |  | moderate activity
